Test results: US8247556B2, “Method for preparing 6-substituted-7-aza-indoles” (Amgen Inc., priority 2005, dated 2012)

How the values were obtained:
[1] = target: T1, CYP 3A4 (Homo sapiens, UniProt P08684); assay: Human Liver Microsome CYP 3A4 Inhibition; format: in vitro ADME; settings: human liver microsomes, midazolam substrate; read-out: inhibited CYP3A4 microsomes, IC50
T1 construct: followed by 222.2 ml of 20 mg/mL HLM (BD Gentest); tissue BD Gentest; host or cells: human liver microsomes
Procedure: Determining the IC-50 for Human Liver Microsome CYP 3A4 Inhibition
Postassium Phosphate Buffer pH 7.4 (39.667 mL) is chilled in an ice bath and added to a 50 ml plastic tube. A 2 mM midazolam solution is prepared. 111.1 ul of 2 mM midazolam is added to the buffer followed by 222.2 ml of 20 mg/mL HLM (BD Gentest). The incubation mixture was gently inverted and equilibrated at 37° C. for 5 min. A stock inhibitor solution is prepared, such as in DMSO. Incubation mixture (801 ul) is added into 96-well, 1.2 mL plastic tubes. Inhibitor is added at various concentrations (e.g. 30 uM to 120 nM). The tubes are sealed and mix by inverting 5 times gently. The incubation mixture containing inhibitor (270 uL) is added by aliquot into wells of a 1 mL, 96-well block (duplicate). The block is placed into a 37° C. water bath and equilibrated for 3 min. 10 mM NADPH (30 ml) is added to all samples. After 5 minutes, the reactions are stopped by adding 300 ml of Quench Solution [0.1% TFA in CH3CN]. 1′-OH-Midazolam-d313C (2 mg/mL 30 uL) is added, the block is gently vortexed then centrifuged at 3000 rpm for 10 minutes at 4° C. 50 μL of supernatant from all samples is added by aliquot into a shorter, 96-well block. The aliquoted supernatants are pooled with other assay(s) and HPLC Grade Water (50 ul) is added to all samples. After covering and shaking by vortex gently for 2 minutes, the solutions were analyzed by LC-MS (API 3000,5% MeOH w/0.1% AcOH to 95% MeOH w/0.1% AcOH). 37 nM ketoconazole is used as a control.

[2] = test system: VEGF-stimulated HUVEC proliferation (Human Umbilical Vein Endothelial cells); assay: HUVEC Proliferation Assay; format: cell-based; settings: VEGF 50 ng/mL, 72 h, CyQuant fluorescent dye, read-out: inhibited VEGF-stimulated HUVEC proliferation at a level
Procedure, shortened: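 HUVEC (passage 2–3) were seeded in DMEM+10% FBS for 22 h, then pre-incubated 2–3 h with 5-point, 5-fold compound dilutions (0.25% DMSO). They were then stimulated with VEGF (50 ng/mL final) for 72 h at 37 °C. Proliferation was read by CyQuant fluorescence (485/530 nm) after freeze-thaw, and IC50 came from a 4-parameter fit.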

[3] = target: T2, CYP 2D6 (Homo sapiens, UniProt P10635); assay: Human Liver Microsome CYP 2D6 Inhibition; format: in vitro ADME; settings: human liver microsomes, bufuralol substrate; read-out: inhibited CYP2D6 microsomes, IC50
T2 construct: followed by 555.6 ml of 20 mg/mL HLM (BD Gentest); tissue BD Gentest; host or cells: human liver microsomes
T2 sequence (P10635 whole entry): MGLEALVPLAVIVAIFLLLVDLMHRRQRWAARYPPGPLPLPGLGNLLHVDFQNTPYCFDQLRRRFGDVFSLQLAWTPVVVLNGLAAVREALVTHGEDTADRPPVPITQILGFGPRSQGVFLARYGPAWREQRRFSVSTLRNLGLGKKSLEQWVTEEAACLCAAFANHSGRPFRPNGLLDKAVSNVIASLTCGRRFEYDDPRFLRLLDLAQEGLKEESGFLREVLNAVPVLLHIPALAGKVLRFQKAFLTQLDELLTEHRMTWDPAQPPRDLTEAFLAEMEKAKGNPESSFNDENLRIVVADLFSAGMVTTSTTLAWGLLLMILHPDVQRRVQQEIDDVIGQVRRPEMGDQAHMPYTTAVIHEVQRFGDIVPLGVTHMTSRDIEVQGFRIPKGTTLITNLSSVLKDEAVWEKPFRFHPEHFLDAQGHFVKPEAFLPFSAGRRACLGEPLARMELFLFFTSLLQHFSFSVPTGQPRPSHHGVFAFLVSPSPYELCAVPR
Procedure: Determining the IC-50 for Human Liver Microsome CYP 2D6 Inhibition
Postassium Phosphate Buffer pH 7.4 (39.333 mL) is chilled in an ice bath and added to a 50 ml plastic tube. A 3.2 mM bufuralol solution is prepared. 111.1 ul of 3.2 mM bufuralol is added to the buffer followed by 555.6 ml of 20 mg/mL HLM (BD Gentest). The incubation mixture was gently inverted and equilibrated at 37° C. for 5 min. A stock inhibitor solution is prepared, such as in DMSO. Incubation mixture (801 ul) is added into 96-well, 1.2 mL plastic tubes. Inhibitor is added at various concentrations (e.g. 30 μM to […]). The tubes are sealed and mix by inverting 5 times gently. The incubation mixture containing inhibitor (270 μL) is added by aliquot into wells of a 1 mL, 96-well block (duplicate). The block is placed into a 37° C. water bath and equilibrated for 3 minutes. 10 mM NADPH (30 ml) is added to all samples. After 5 min, the reactions are stopped by adding 300 ml of Quench Solution [0.1% TFA in CH3CN]. 1′-OH-bufuralol-d9 (750 ng/mL 30 μL) is added, the block is gently vortexed then centrifuged at 3000 rpm for 10 min at 4° C. 50 μL of supernatant from all samples is added by aliquot into a shorter, 96-well block. The aliquoted supernatants are pooled with other assay(s) and HPLC Grade Water (50 μL) is added to all samples. After covering and shaking by vortex gently for 2 minutes, the solutions were analyzed by LC-MS (API 3000, 5% MeOH w/0.1% AcOH to 95% MeOH w/0.1% AcOH). 500 nM quinidine is used as a control.

T1 sequence (P08684 whole entry): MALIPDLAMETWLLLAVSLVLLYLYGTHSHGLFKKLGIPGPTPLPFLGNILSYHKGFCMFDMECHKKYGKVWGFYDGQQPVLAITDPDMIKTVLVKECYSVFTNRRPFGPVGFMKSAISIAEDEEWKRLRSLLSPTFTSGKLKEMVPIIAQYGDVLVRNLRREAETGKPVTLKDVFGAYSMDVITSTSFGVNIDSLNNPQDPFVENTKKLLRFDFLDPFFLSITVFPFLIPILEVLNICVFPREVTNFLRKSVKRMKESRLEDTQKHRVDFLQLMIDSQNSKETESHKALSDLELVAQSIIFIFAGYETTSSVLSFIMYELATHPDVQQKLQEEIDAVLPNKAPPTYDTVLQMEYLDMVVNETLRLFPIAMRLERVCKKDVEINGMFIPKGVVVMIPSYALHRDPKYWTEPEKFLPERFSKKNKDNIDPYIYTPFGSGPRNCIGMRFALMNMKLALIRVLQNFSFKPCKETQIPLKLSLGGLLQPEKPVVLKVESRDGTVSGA

SMILES	IC50 [1]	IC50 [2]	IC50 [3]
CC1(C)CNc2cc(NC(=O)c3cccnc3NCc3ccnc4[nH]ccc34)ccc21 [Example 16, N-(3,3-Dimethyl-2,3-dihydro-1H-indol-6-yl)-2-[(1H-pyrrolo[2,3-b]pyridin-4-ylmethyl)amino]nicotinamide]	> 20 µM	< 0.5 µM	> 20 µM
CC(C)(C)c1ccc(NC(=O)c2cccnc2NCc2ccnc3c2CCN3)cc1 [Example 28, N-(4-tert-Butylphenyl)-2-[(2,3-dihydro-1H-pyrrolo[2,3-b]pyridin-4-ylmethyl)amino]nicotinamide]	> 20 µM	< 0.5 µM	> 20 µM
CC1(C)CNc2cc(NC(=O)c3cccnc3NCc3ccnc4c3CCN4)ccc21 [Example 32, 2-[(2,3-Dihydro-1H-pyrrolo[2,3-b]pyridin-4-ylmethyl)amino]-N-(3,3-dimethyl-2,3-dihydro-1H-indol-6-yl)nicotinamide]	> 20 µM	< 0.5 µM	> 20 µM
CC1(C)CN(C(=O)[C@@H]2CCCO2)c2cc(NC(=O)c3cccnc3NCc3ccnc4[nH]ccc34)ccc21 [Example 34, N-{3,3-dimethyl-1-[(2S)-tetrahydrofuran-2-ylcarbonyl]-2,3-dihydro-1H-indol-6-yl}-2-[(1H-pyrrolo[2,3-b]pyridin-4-ylmethyl)amino]nicotinamide]	> 20 µM	< 0.5 µM	> 20 µM
O=C(Nc1cc(OC[C@H]2CCCO2)cc(C(F)(F)F)c1)c1cccnc1NCc1ccnc2[nH]ccc12 [Example 36, 2-[(1H-pyrrolo[2,3-b]pyridin-4-ylmethyl)amino]-N-[3-[(2R)-tetrahydrofuran-2-ylmethoxy]-5-(trifluoromethyl)phenyl]nicotinamide]	> 20 µM	< 0.5 µM	> 20 µM
CC1(C)CC(=O)Nc2cc(NC(=O)c3cccnc3NCc3c[nH]c4ncccc34)ccc21 [Example 41, N-(4,4-Dimethyl-2-oxo-1,2,3,4-tetrahydro-7-quinolinyl)-2-((1H-pyrrolo[2,3-b]pyridin-3-ylmethyl)amino)-3-pyridinecarboxamide]	> 20 µM	< 0.5 µM	> 20 µM
Cc1nc2cc(NC(=O)c3cccnc3NCc3ccnc4[nH]ccc34)ccc2s1 [Example 48, N-(2-methyl-1,3-benzothiazol-5-yl)-2-[(1H-pyrrolo[2,3-b]pyridin-4-ylmethyl)amino]nicotinamide]	> 20 µM	< 0.5 µM	> 20 µM
CC(C)(C)c1cc(NC(=O)c2cccnc2NCc2ccnc3[nH]ccc23)no1 [Example 49, N-(5-tert-butylisoxazol-3-yl)-2-[(1H-pyrrolo[2,3-b]pyridin-4-ylmethyl)amino]nicotinamide]	> 20 µM	< 0.5 µM	> 20 µM
O=C(Nc1ccc2ccccc2c1)c1cccnc1NCc1ccnc2[nH]ccc12 [Example 50, N-Naphthalen-2-yl-2-[(1H-pyrrolo[2,3-b]pyridin-4-ylmethyl)-amino]-nicotinamide]	> 20 µM	< 0.5 µM	> 20 µM
CC1(C)CNC(=O)c2cc(NC(=O)c3cccnc3NCc3ccnc4[nH]ccc34)ccc21 [Example 56, N-(4,4-Dimethyl-1-oxo-1,2,3,4-tetrahydro-isoquinolin-7-yl)-2-[(1H-pyrrolo[2,3-b]pyridin-4-ylmethyl)-amino]-nicotinamide]	> 20 µM	< 0.5 µM	> 20 µM
CN(C)CC(=O)Nc1cc(NC(=O)c2cccnc2NCc2ccnc3[nH]ccc23)ccc1C(C)(C)C [Example 59, N-[4-tert-Butyl-3-(2-dimethylamino-acetylamino)-phenyl]-2-[(1H-pyrrolo[2,3-b]pyridin-4-ylmethyl)-amino]-nicotinamide]	> 20 µM	< 0.5 µM	> 20 µM
CC1(C)CCCNc2cc(NC(=O)c3cccnc3NCc3ccnc4[nH]ccc34)ccc21 [Example 64, N-(5,5-Dimethyl-2,3,4,5-tetrahydro-1H-benzo[b]azepin-8-yl)-2-[(1H-pyrrolo[2,3-b]pyridin-4-ylmethyl)-amino]-nicotinamide]	> 20 µM	< 0.5 µM	> 20 µM
O=C(Nc1ccc(C(F)(F)F)cc1)c1cccnc1NCc1ccnc2[nH]ccc12 [Example 66, 2-[(1H-Pyrrolo[2,3-b]pyridin-4-ylmethyl)-amino]-N-(4-trifluoromethyl-phenyl)-nicotinamide]	> 20 µM	< 0.5 µM	> 20 µM
O=C(Nc1ccc(C(F)(F)C(F)(F)F)cc1)c1cccnc1NCc1ccnc2[nH]ccc12 [Example 67, N-(4-pentafluoroethyl-phenyl)-2-[(1H-pyrrolo[2,3-b]pyridin-4-ylmethyl)-amino]-nicotinamide]	> 20 µM	< 0.5 µM	> 20 µM
O=C(Nc1ccc(C(F)(F)C(F)(F)F)cc1)c1cc(F)cnc1NCc1ccnc2[nH]ccc12 [Example 76, 5-fluoro-N-(4-(pentafluoroethyl)phenyl)-2-((1H-pyrrolo[2,3-b]pyridin-4-ylmethyl)amino)-3-pyridinecarboxamide]	> 20 µM	< 0.5 µM	> 20 µM
Cc1cc(NC(=O)c2cc(F)cnc2NCc2ccnc3[nH]ccc23)ccc1C(C)C [Example 83, 5-fluoro-N-(3-methyl-4-(1-methylethyl)phenyl)-2-((1H-pyrrolo[2,3-b]pyridin-4-ylmethyl)amino)-3-pyridinecarboxamide]	> 20 µM	< 0.5 µM	> 20 µM
O=C(Nc1ccc(OC(F)(F)F)cc1)c1cc(F)cnc1NCc1ccnc2[nH]ccc12 [Example 96, 5-fluoro-2-((1H-pyrrolo[2,3-b]pyridin-4-ylmethyl)amino)-N-(4-((trifluoromethyl)oxy)phenyl)-3-pyridinecarboxamide]	> 20 µM	< 0.5 µM	> 20 µM
Cc1ccc(NC(=O)c2cc(F)cnc2NCc2ccnc3[nH]ccc23)cc1C(F)(F)F [Example 112, 5-fluoro-N-(4-methyl-3-(trifluoromethyl)phenyl)-2-((1H-pyrrolo[2,3-b]pyridin-4-ylmethyl)amino)-3-pyridinecarboxamide]	> 20 µM	< 0.5 µM	> 20 µM
O=C(Nc1ccc(C(F)(F)F)cc1)c1cc(F)cnc1NCc1ccnc2[nH]ncc12 [Example 118, 5-Fluoro-2-((1H-pyrazolo[3,4-b]pyridin-4-ylmethyl)amino)-N-(4-(trifluoromethyl)phenyl)-3-pyridinecarboxamide]	> 20 µM	< 0.5 µM	> 20 µM
Cc1cc(NC(=O)c2cc(F)cnc2NCc2ccnc3[nH]ncc23)ccc1C(C)C [Example 121, 5-Fluoro-N-(3-methyl-4-(1-methylethyl)phenyl)-2-((1H-pyrazolo[3,4-b]pyridin-4-ylmethyl)amino)-3-pyridinecarboxamide]	> 20 µM	< 0.5 µM	> 20 µM
